Key:
[1] = test system: KRAS^G12S mutated A549 cells; assay: Clonogenic assay (colony formation), A549; format: cell-based, human; conditions: for colony formation (in words): A549, 2000 cells per well, 14 days, crystal violet, various concentrations; for reduction of colony formation: A549, quantification FIG. 1B, each agent alone or combination, concentrations not given
Description: (§1) Cells and Reagents: The cell lines were obtained from ATCC (SW620 #CCL-227, A549 #CCL-185 and NCI-H441 #HTB-174). The cell lines, LS180 (ECACC #87021202) and Gp2D (ECACC #95090714). The cell line, CAL 27 was cultured in DMEM (Gibco #). SCC-4, SCC-15, SCC-25, SCC-9 cell lines were cultured in a 1:1 mixture of DMEM and Ham's F12 medium containing 1.2 g/L sodium bicarbonate, 2.5 mM L-glutamine, 15 mM HEPES and 0.5 mM sodium pyruvate supplemented with 400 ng/ml hydrocortisone, 90%; fetal bovine serum, 10% (Hyclone #SH-30071.03) and Penicillin/Streptomycin (Thermo Fisher #15070-063). The cells were maintained at 37° C./5% CO2.
(§2) Clonogenic assay: The cells were plated onto 6-well plates in 2 ml cell culture medium. The cells were incubated overnight and treated with various concentration of the compound of Formula I and Palbociclib. After 7 days incubation, the medium was replaced with fresh medium, cells were treated again with same concentration of the compound of Formula I and Palbociclib and incubated for additional 7 days. After 14 days of total incubation, the cells were washed with PBS twice and fixed 30 mins with 4% formaldehyde. The cells were washed twice with PBS and incubated with 0.1% crystal violet for 60 mins. After the crystal violet staining, the cells were washed five times with water and let it dry at room temperature. After the plates were dried, the crystal staining was de-stained with 1 ml of 10% acetic acid and absorbance was measured at 560 nm.
(§3) Cell lines from each of KRAS^G12D (LS513 and Gp2D), KRAS^G12S (A549) and KRAS^G12V (NCI-H441 and SW620) mutations were split onto 6-well plates in 2 ml cell culture medium. The cells were incubated overnight and treated with various concentration of the compound of Formula I and Palbociclib and assayed using the Clonogenic Assay protocol described above.
The A549 cells were split onto 6 well plates (2000 cells per well). After overnight incubation, the cells were treated with the compound of Formula I alone and treated in combination with palbociclib and colony formation was determined as mentioned in method. […] (FIG. 1A).

[2] = test system: KRAS^G12V mutated NCI-H441 cells; assay: Clonogenic assay (colony formation), NCI-H441; format: cell-based, human; conditions: for colony formation (in words): NCI-H441, 8000 cells per well, 14 days, crystal violet, various concentrations
Description: as §1, §2, §3
(§4) The NCI-H441 and SW620 cells were split onto 6 well plates (8000 and 4000 calls per well respectively). After overnight incubation, the cells were treated with the compound of Formula I alone and treated in combination with palbociclib and colony formation was determined as mentioned in method. […] (FIGS. 2A&3A). […] There was a pronounced inhibition of colony formation (about 80%) observed with combination of the compound of Formula I and palbociclib treatment. […] There was a pronounced inhibition of colony formation (about 60%) observed with combination of the compound of Formula I and palbociclib treatment.

[3] = test system: KRAS^G12V mutated SW620 cells; assay: Clonogenic assay (colony formation), SW620; format: cell-based; conditions: for colony formation (in words): SW620, 4000 cells per well, 14 days, crystal violet, various concentrations
Description: as §1, §2, §3, §4

[4] = test system: KRAS^G12D mutated LS-180 cells; assay: Clonogenic assay (colony formation), LS-180; format: cell-based; conditions: for colony formation (in words): LS-180, 4000 cells per well, 14 days, crystal violet, various concentrations
Description: as §1, §2, §3
(§5) The LS-180 and Gp2D cells were split onto 6 well plates (4000 and 8000 calls per well respectively). After overnight incubation, the cells were treated with the compound of Formula I alone and treated in combination with palbociclib and colony formation was determined as mentioned in method. […] (FIGS. 4A&5A). […] There was a pronounced inhibition of colony formation (about 50%) observed with combination of the compound of Formula I and palbocilib treatment. […] There was a pronounced inhibition of colony formation (about 50%) observed with combination of the compound of Formula I and palbocilib treatment.

[5] = test system: KRAS^G12D mutated Gp2D cells; assay: Clonogenic assay (colony formation), Gp2D; format: cell-based, human; conditions: for colony formation (in words): 8000 cells per well, 14 days, crystal violet, various concentrations
Description: as §1, §2, §3, §5

[6] = test system: KRAS^G12S mutant NSCLC xenograft model A549; assay: Antitumor efficacy in A549 xenograft mouse model; format: in vivo, Female Balb/c nude mice; conditions: 28 days
Description: Reagents: The vehicle/control article, 100 mM acetic acid in deionized water, with pH adjustment to 4.8-5.0, was prepared and stored under ambient conditions throughout the 28-day administration in mice. The test article compound of Formula I was freshly prepared in vehicle of 100 mM acetic buffer weekly and stored under ambient conditions. The combination agent palbociclib was freshly prepared in vehicle of 50 mM Sodium Lactate Buffer, pH 3.8-4.0 weekly and stored at 2-8° C.
Animals: Female Balb/c nude mice were purchased from the Beijing Vital River Laboratory Animal Technology Co., Ltd. Mice were hosted at special pathogen-free (SPF) environment of vivarium facility and acclimated to their new environment for at least 3 days prior to initiation of any experiments. Mice were between 6-8 weeks of age at the time of implantation.
Preparation of xenograft model: A549 was a human lung cancer cell line that harbored a KRASG12S mutation. The A549 cell line was purchased from the American Type Culture Collection (ATCC® CCL-185™). A549 cells were cultured in medium containing RPMI1640 plus 10% Fetal Bovine Serum (FBS) at 37° C. in an atmosphere of 5% CO2 in air. The medium was renewed every 2 to 3 days and tumor cells were routinely sub-cultured at a confluence of 80-90% by trypsin-EDTA. The cells growing in an exponential growth phase were harvested and counted for inoculation.
A549 tumor cells were implanted into mice subcutaneously. Briefly, 200 μL cell suspensions containing 5×10^6 tumor cells mixed with 50% Matrigel were subcutaneously implanted into the right flank of mouse using a syringe. Animal health and tumor growth were monitored daily. Tumor volume was measured twice a week by caliper when tumors were palpable and measurable. When tumor volumes reached a mean of 200 mm^3 (range of 152-259 mm^3), tumor-bearing mice were randomized into different groups with 8 mice in each group. The randomization date was denoted as treatment day 0.
Treatment: Treatment started on the day of randomization. The treatment start day was denoted as treatment day 0. Mice were dosed by oral administration of vehicle control solution, the compound of Formula I at 10 mg/kg/dose BID, the compound of Formula I at 30 mg/kg QD, or palbociclib at 25 mg/kg QD monotherapy treatment groups. Two additional groups received combination treatment of the compound of Formula I and palbociclib, one dosing the compound of Formula I at 10 mg/kg/dose BID with palbociclib at 25 mg/kg QD and the other dosing the compound of Formula I at 30 mg/kg QD with palbociclib at 25 mg/kg QD. The dosing volume for each compound was 5 mL/kg and interval of BID regimen was 8 hours. Palbociclib was dosed at one-hour post the compound of Formula I QD or first BID dose in combination groups. […] Per this practice, mice in the compound of Formula I at 10 mg/kg/dose BID monotherapy group and in the compound of Formula I at 10 mg/kg/dose BID with palbociclib at 25 mg/kg QD combination group were supplied with DietGel food starting on treatment day 20 and continuing through the remaining study period. Mice in the compound of Formula I at 30 mg/kg QD monotherapy group were supplied with DietGel food starting on treatment day 17 and continuing through the remaining study period. The study was terminated on treatment day 28 as being defined in the study protocol.
Measurements and calculations: Conditions of animal health and clinical signs of toxicity were monitored daily. Subcutaneous tumor volumes and mouse body weights were measured twice a week by caliper and balance, respectively. Tumor volume, percent of tumor growth inhibition (% TGI), percent of tumor regression, percent of body weight change (% BWC), and treatment related body weight loss (% trBWL) were calculated based on following formulas: […]
Percent of tumor growth inhibition (% TGI) • vii.
[formula] • viii. TVTi was the group mean tumor volume (TV) of treatment group at last treatment day • ix. […]

[7] = Body weight change and tolerability in A549 xenograft study; format: in vivo, Female Balb/c nude mice; conditions: for treatment related body weight loss (trBWL) category: palbociclib 25 mg/kg QD, Formula I 10 mg/kg BID and 30 mg/kg QD, both combinations with palbociclib 25 mg/kg QD
Description: Treatment: Treatment started on the day of randomization. The treatment start day was denoted as treatment day 0. Mice were dosed by oral administration of vehicle control solution, the compound of Formula I at 10 mg/kg/dose BID, the compound of Formula I at 30 mg/kg QD, or palbociclib at 25 mg/kg QD monotherapy treatment groups. Two additional groups received combination treatment of the compound of Formula I and palbociclib, one dosing the compound of Formula I at 10 mg/kg/dose BID with palbociclib at 25 mg/kg QD and the other dosing the compound of Formula I at 30 mg/kg QD with palbociclib at 25 mg/kg QD. The dosing volume for each compound was 5 mL/kg and interval of BID regimen was 8 hours. Palbociclib was dosed at one-hour post the compound of Formula I QD or first BID dose in combination groups. […] The study was terminated on treatment day 28 as being defined in the study protocol.
Measurements and calculations: Conditions of animal health and clinical signs of toxicity were monitored daily. Subcutaneous tumor volumes and mouse body weights were measured twice a week by caliper and balance, respectively. Tumor volume, percent of tumor growth inhibition (% TGI), percent of tumor regression, percent of body weight change (% BWC), and treatment related body weight loss (% trBWL) were calculated based on following formulas:
[formula] [formula] [formula] • i. BWdx was body weight group mean at treatment day x • ii. BWd0 was body weight group mean at treatment day 0
Percentage of treatment related body weight loss at treatment day x (% trBWLdx) was calculated based on the following: • iii. If % BWC in the treatment group was positive at treatment day x: % trBWLdx=0% • iv. If % BWC was negative in both the control and treatment groups at treatment day • x:
Treatment related body weight loss (trBWL) was categorized based on the following criteria: x≤5% was no loss, 5%<x≤10% was mild loss, 10%<x≤20% was moderate loss and x>20% was severe loss.

## CC(=O)c1c(C)c2cnc(Nc3ccc(N4CCNCC4)cn3)nc2n(C2CCCC2)c1=O [Palbociclib, reference compound]
[1]
  colony formation (in words): inhibition of colony formation dose dependently
  reduction of colony formation: about 10%
[2]; Homo sapiens, NCI-H441, palbociclib 100 nM alone, FIG. 2B
  inhibition at 0.1 µM: ~60%
[2]
  colony formation (in words): inhibition of colony formation dose dependently
[3]; Homo sapiens, SW-620, SW620, palbociclib 100 nM alone, FIG. 3B
  inhibition at 0.1 µM: ~40%
[3]
  colony formation (in words): inhibition of colony formation dose dependently
[4]; Homo sapiens, LS180, LS-180, palbociclib 250 nM alone, FIG. 4B
  inhibition at 0.25 µM: ~40%
[4]
  colony formation (in words): inhibition of colony formation dose dependently
[5]
  colony formation (in words): inhibition of colony formation dose dependently
[5]; Homo sapiens, palbociclib 250 nM alone, FIG. 5B
  inhibition at 0.25 µM: ~40%
[6]; palbociclib 25 mg/kg QD oral
  % TGI (last treatment day): 15%
  % Tumor regression (last treatment day): 0%
[7]; 28 days oral, palbociclib 25 mg/kg QD monotherapy
  maximum trBWL: 400
[7]; 28 days oral
  treatment related body weight loss (trBWL) category: no trBWL

## COCOC[C@H]1C[C@H]2COc3c(Sc4cnc(N5CCC6(CC5)CO[C@@H](C)[C@H]6N)c(CO)n4)ccnc3N2C1 [compound of Formula I, (3-((3S,4S)-4-amino-3-methyl-2-oxa-8-azaspiro[4.5]decan-8-yl)-6-(((6aS,8S)-8-((methoxymethoxy)methyl)-6a,7,8,9-tetrahydro-6H-pyrido[3,2-b]pyrrolo[1,2-d] [1,4]oxazin-4-yl)thio)pyrazin-2-yl)methanol]
[1]
  colony formation (in words): inhibited the colony formation minimally
  reduction of colony formation: about 10%
[2]
  colony formation (in words): inhibited the colony formation minimally
[2]; NCI-H441, FIG. 2B
  colony formation on increasing the concentration of Formula I: robust inhibition of colony formation
[2]; NCI-H441, Formula I 250 nM alone, FIG. 2B
  colony formation (treatment showed about x% of colony formation): about 40%
[3]
  colony formation (in words): inhibited the colony formation minimally
[3]; SW620, Formula I 250 nM alone, FIG. 3B
  colony formation (treatment showed about x% of colony formation): about 10%
[3]; SW620, single agent and combination, FIG. 3B
  colony formation on increasing the concentration of Formula I: robust inhibition of colony formation
[4]
  colony formation (in words): inhibited the colony formation minimally
[4]; LS-180, Formula I 250 nM alone, FIG. 4B
  colony formation (treatment showed about x% of colony formation): about 10%
[5]
  colony formation (in words): inhibited the colony formation minimally
[5]; Formula I 250 nM alone, FIG. 5B
  colony formation (treatment showed about x% of colony formation): about 20%
[6]; Formula I 10 mg/kg BID oral
  % TGI (last treatment day): 52%
  % Tumor regression (last treatment day): 0%
[6]; Formula I 30 mg/kg QD oral
  % TGI (last treatment day): 70%
  % Tumor regression (last treatment day): 0%
[7]; 28-day treatment period, both Formula I monotherapy groups and both combination groups
  clinical signs of toxicity or mortality: no clinical signs of toxicity or mortality were observed
[7]; 28 days oral
  treatment related body weight loss (trBWL) category: mild trBWL

From patent US20240293422A1, “SHP2 AND CDK4/6 INHIBITORS COMBINATION THERAPIES FOR THE TREATMENT OF CANCER” (Erasca, Inc., priority 2021, published 2024)
